The record followed here is patent publication US20260355169A1, “METHODS OF TREATING CANCERS USING ISOQUINOLINE OR 6-AZA-QUINOLINE DERIVATIVES” (Black Diamond Therapeutics, Inc., priority 2022, published 2026).

Each structure is given as a SMILES string.

The test system of the experiment is BaF3 BRAF-KIAA1549 fusion cells. Nature of the experiment: BaF3 BRAF-KIAA1549 fusion cell proliferation assay. In kind it is cell-based. The conditions noted are these: Mus musculus, BaF3, 96 h, read-out: IC50, inhibition of cell growth, BaF3-BRAF:KIAA1549 Fusion. How it is done: Retroviral Production: The BRAF-KIAA1549 fusion mutant was subcloned into pMXs-IRES-Blasticidin (RTV-016, Cell Biolabs, San Diego, CA). […]. Briefly, HEK 293T cells were plated in Poly-D-lysine coated 6-well plate (2.5×10^5 cells per well) and incubated overnight. The next day, retroviral plasmids (1 μg of BRAF-KIAA fusion mutant, 0.32 μg of pCMV-Gag-Pol and 0.165 μg pCMV-VSV-G) were mixed in 300 μL of Optimem (31985, Life Technologies). The mixture was incubated at room temperature for 5 minutes and then added to Optimem containing transfection reagent Lipofectamine (11668, Invitrogen) and incubated for 20 minutes. The mixture was then added dropwise to HEK 293T cells. The next day the medium was replaced with fresh culture medium and retrovirus was harvested at 24 hours.
Generation of BRAF-KIAA1549 fusion stable cell line: BaF3 cells were plated in V-bottom 96 well plate (COSTAR #3894) in 80 μL of RPMI/10% FBS and 0.01 ng/mL mouse IL-3, supplemented with 8 μg/mL polybrene (4×10^4 cells/well). Cells were transduced with 20 μL of BRAF-KIAA1549 fusion viral supernatant by centrifuging for 30 minutes at 1000 rpm. Cells were placed in a 37 °C incubator overnight. Next day 100 μL of RPMI/10% FBS and 0.01 ng/mL mouse IL-3 was added. After 24 hours, 100 μL of cells were transferred to a 24 well plate containing 900 μL of RPMI/10% FBS and 15 μg/mL Blasticidin. Contents of the 24 well plate were sampled for cell viability via CellTiterGlo (Promega) over a 2-week period.
Assay for cell proliferation: BaF3 BRAF-KIAA1549 fusion cells were resuspended at 1.5×10^5 c/mL in RPMI containing 10% Heat Inactivated FBS, 1% L-glutamine and dispensed in duplicate ([…]) into 384 well plates. To determine the effect of compound on cell proliferation, BaF3 BRAF-KIAA1549 fusion cells were incubated for 96 hours in the presence of vehicle control (DMSO) or compound at varying concentrations. Inhibition of cell growth was determined by luminescent quantification (Envision by Perkin Elmer) of intracellular ATP content using CellTiterGlo (Promega), according to the protocol provided by the manufacturer. To determine the IC50 values, the vehicle-treated cells were normalized as viable cells and analyzed using the CDD Vault, Collaborative Drug Discovery, Burlingame, CA (the Levenberg-Marquardt algorithm; Levenberg, K, […]; Marquardt, D., 1963).
Table A assigns each compound a code for potency in the BaF3 BRAF-KIAA1549 fusion cell proliferation assay: A, B, C, or D. According to the code, A represents an IC50 value<20 nM; B represents an IC50 value≥20 nM and <100 nM; C represents an IC50 value≥100 nM and <500 nM; and D represents an IC50 value≥500 nM.
As a reminder, the IC50 is the concentration that inhibits the measured activity by half. With `CNc1cc2ncc(-c3cc(NC(=O)c4cnc5n4CC(C(F)F)CC5)ccc3C)cc2cn1` (stereo not drawn) [compound 238], the IC50 lay in the range of 0.02 to 0.1 µM.

Take `CNc1ncc2cc(-c3cc(NC(=O)c4ccnc(C(C)(C)C#N)c4)cnc3C)cnc2c1Cl` [compound 270]: the IC50 is greater than 0.5 µM.

Take `CNc1cc2ncc(-c3cc(C(=O)Nc4cc(C(C)(C)C#N)ccn4)ccc3C)cc2cn1` [compound 53]: the IC50 was 0.02 to 0.1 µM.

For `CNc1cc2ncc(-c3cc(C(=O)Nc4cc(C(C)(C)C#N)ccn4)cnc3C)cc2cn1` [compound 59], the IC50 is 0.02 to 0.1 µM.

As to `CNc1cc2ncc(-c3cc(NC(=O)c4c[nH]c5ccccc45)cnc3C)cc2cn1` [compound 194], the IC50 lay within 0.02 to 0.1 µM.

In the case of `CNc1cc2ncc(-c3cc(NC(=O)c4cc(C(F)(F)F)ccn4)nnc3C)cc2cn1` [compound 75], the IC50 was 0.02 to 0.1 µM.

Turning to `CNc1cc2ncc(-c3cc(NC(=O)c4ccnc(C5(F)CC5)c4)c(F)cc3C)cc2cn1` [compound 221], the IC50 lay within 0.02 to 0.1 µM.

Consider `CNc1cc2ncc(-c3cc(NC(=O)c4ccnc(C(F)F)c4)cnc3C)cc2cn1` [compound 28], for which the IC50 fell in the range of 0.1 to 0.5 µM.

Turning to `CNc1cc2ncc(-c3cc(NC(=O)c4cc(C(O)CC(F)(F)F)ccn4)cnc3C)cc2cn1` (stereo not drawn) [compound 242], the IC50 was in the range of 0.02 to 0.1 µM.

In the case of `CCNc1cc2ncc(-c3cc(NC(=O)c4cc(C(C)(C)C#N)ccn4)cnc3C)cc2cn1` [compound 175], the IC50 is 0.02 to 0.1 µM.

With `CNc1cc2ncc(-c3cc(NC(=O)c4cccc(C5(C#N)CC5)c4)cnc3C)cc2cn1` [compound 191], the IC50 fell in the range of 0.02 to 0.1 µM.

As for `CNc1cc2ncc(-c3cc(NC(=O)c4cccc5c4OC(C)C5)cnc3C)cc2cn1` (stereo not drawn) [compound 239], the half-maximal inhibitory concentration (IC50) was greater than 0.5 µM.

`CNc1cc2ncc(-c3cc(NC(=O)c4cnc5n4C[C@@H](C)CC5)cnc3C)cc2cn1` [compound 258]: the IC50 lay within 0.02 to 0.1 µM.

As to `CNc1cc2ncc(-c3cc(NC(=O)c4noc5c4CC(C)(C)CC5)cnc3C)cc2cn1` [compound 257], the IC50 lay in the range of 0.02 to 0.1 µM.

Turning to `CNc1cc2ncc(-c3cc(NC(=O)c4cc(C(C)(C)C#N)ccn4)cc(F)c3F)cc2cn1` [compound 39], the IC50 lay in the range of 0.02 to 0.1 µM.

On to `Cc1ncc(NC(=O)c2cc(C(F)(F)F)ccn2)cc1-c1ccc2c3c(ncc2c1)NC(=O)C3` [compound 274], for which the IC50 is less than 0.02 µM.

As to `CNc1cc2ncc(-c3cc(NC(=O)c4cccc(N(C)C)c4)ccc3C)cc2cn1` [compound 4], the IC50 was less than 0.02 µM.

For `CNc1cc2ncc(-c3cc(NC(=O)c4n[nH]c5c4C[C@H](C)O[C@@H]5C)ccc3C)cc2cn1` [compound 264], the IC50 was in the range of 0.02 to 0.1 µM.

As for `CNc1cc2ncc(-c3cc(NC(=O)c4noc5c4CC(F)(F)CC5)cnc3C)cc2cn1` [compound 247], the half-maximal inhibitory concentration (IC50) lay within 0.02 to 0.1 µM.

As for `CNc1ncc2cc(-c3cc(NC(=O)c4ccnc(C(C)(C)C#N)c4)cnc3C)cnc2c1C#N` [compound 192], the IC50 fell in the range of 0.1 to 0.5 µM.

For `CNc1cc2ncc(-c3cc(NC(=O)c4c[nH]c5ccc(C)cc45)ccc3C)cc2cn1` [compound 263], the IC50 was less than 0.02 µM.

Turning to `CNc1cc2ncc(-c3cc(NC(=O)c4ccnc(C(F)F)c4)ccc3C)cc2cn1` [compound 8], the IC50 fell in the range of 0.02 to 0.1 µM.

As for `CNc1cc2ncc(-c3cc(NC(=O)c4cc(C(F)(F)F)c(C)cn4)cnc3C)cc2cn1` [compound 25], the IC50 was in the range of 0.02 to 0.1 µM.

In the case of `CNc1cc2ncc(-c3cc(NC(=O)c4ccnc(C5CC(F)(F)C5)c4)cnc3C)cc2cn1` [compound 34], the IC50 lay in the range of 0.02 to 0.1 µM.

For the molecule `CNc1cc2ncc(-c3cc(NC(=O)c4noc5c4C[C@H](C)CC5)ccc3C)cc2cn1` [compound 237], the IC50 is 0.02 to 0.1 µM.

Regarding `CNc1cc2ncc(-c3cc(NC(=O)c4cc(C(C)(C)C#N)ccn4)cc(F)c3C)cc2cn1` [compound 38], the IC50 was 0.02 to 0.1 µM.

Consider `CNc1cc2ncc(-c3cc(NC(=O)c4cccc(C(C)(C)C#N)c4)ccc3C)cc2cn1` [compound 193], for which the IC50 was less than 0.02 µM.

With `CNc1cc2ncc(-c3cc(NC(=O)c4noc5c4CCCC5)ccc3C)cc2cn1` [compound 228], the IC50 was 0.1 to 0.5 µM.

Regarding `CNc1cc2ncc(-c3cc(NC(=O)c4ccnc(C(C)(C)F)c4)ccc3C)cc2cn1` [compound 10], the IC50 was less than 0.02 µM.

In the case of `CNc1cc2ncc(-c3cc(NC(=O)c4nccc(C(F)(F)F)c4Cl)ccc3C)cc2cn1` [compound 6], the concentration for half-maximal inhibition (IC50) was less than 0.02 µM.

In the case of `CNc1cc2ncc(-c3cc(NC(=O)c4cnc5n4CCCC5)ccc3C)cc2cn1` [compound 216], the IC50 lay in the range of 0.1 to 0.5 µM.

Regarding `CNc1cc2ncc(-c3cc(F)cc(NC(=O)c4cc(C(C)(C)C#N)ccn4)c3)cc2cn1` [compound 47], the IC50 fell in the range of 0.1 to 0.5 µM.

Regarding `CNc1cc2ncc(-c3cc(C(=O)Nc4cccc(C(C)(C)C#N)c4)cnn3)cc2cn1` [compound 196], the IC50 is greater than 0.5 µM.

Take `CNc1cc2ncc(-c3cc(NC(=O)c4cc(C(C)(C)C#N)ccn4)cc(Cl)c3C)cc2cn1` [compound 48]: the IC50 was greater than 0.5 µM.

As for `CNc1cc2ncc(-c3cc(NC(=O)c4cnc5n4C(C)CCC5)ccc3C)cc2cn1` (stereo not drawn) [compound 205], the IC50 was in the range of 0.1 to 0.5 µM.

For the molecule `CNc1cc2ncc(-c3cc(NC(=O)c4ccnc(C(C)(F)F)c4)cnc3C)cc2cn1` [compound 29], the IC50 is less than 0.02 µM.

As for `CNc1cc2ncc(-c3cc(NC(=O)c4cc(C(C)(C)C#N)ccn4)cnc3C)cc2cn1` [compound 30], the IC50 is 0.02 to 0.1 µM.

`CNc1cc2ncc(-c3cc(C(=O)Nc4cc(C(C)(C)C#N)ccn4)cnn3)cc2cn1` [compound 213]: the IC50 was greater than 0.5 µM.

Take `CNc1cc2ncc(-c3cc(NC(=O)c4noc5c4CN(C(C)C)CC5)cnc3C)cc2cn1` [compound 254]: the IC50 was 0.1 to 0.5 µM.

On to `CNc1cc2ncc(-c3cc(NC(=O)c4cc(C5(C#N)CCC5)ccn4)ccc3C)cc2cn1` [compound 15], for which the IC50 lay within 0.02 to 0.1 µM.

Turning to `CNc1cc2ncc(-c3cc(NC(=O)c4cccc5c4CCC5O)cnc3C)cc2cn1` (stereo not drawn) [compound 219], the IC50 is greater than 0.5 µM.

Turning to `CNc1cc2ncc(-c3cc(NC(=O)c4n[nH]c5c4C[C@H]4C[C@@H]54)cnc3C)cc2cn1` [compound 253], the IC50 was 0.02 to 0.1 µM.

For `CNc1cc2ncc(-c3cc(NC(=O)c4ccccc4NC(C)C(F)F)cnc3C)cc2cn1` (stereo not drawn) [compound 226], the IC50 lay within 0.02 to 0.1 µM.

Regarding `CNc1cc2ncc(-c3cc(NC(=O)N(C)c4ccnc(C(F)F)c4)cnc3C)cc2cn1` [compound 190], the IC50 was in the range of 0.1 to 0.5 µM.

`CNc1cc2ncc(-c3cc(NC(=O)c4cc(C5(C#N)CC5)ccn4)cnc3C)cc2cn1` [compound 32]: the IC50 was less than 0.02 µM.

As to `CNc1cc2ncc(-c3cc(NC(=O)[C@@H](C)n4cnc(C(F)(F)F)n4)ccc3C)cc2cn1` [compound 69], the IC50 fell in the range of 0.1 to 0.5 µM.

Regarding `CNc1cc2ncc(-c3cc(NC(=O)c4n[nH]c5c4CN(C)CC5)cnc3C)cc2cn1` [compound 244], the IC50 is greater than 0.5 µM.

Turning to `CNc1cc2ncc(-c3cc(NC(=O)c4cc([C@H](O)C(C)(F)F)ccn4)cnc3C)cc2cn1` [compound 249], the IC50 is 0.02 to 0.1 µM.

Take `CNc1cc2ncc(-c3cc(NC(=O)c4cnc5n4C[C@H](C)CC5)cnc3C)cc2cn1` [compound 259]: the half-maximal inhibitory concentration (IC50) was in the range of 0.02 to 0.1 µM.

With `CNc1cc2ncc(-c3cc(NC(=O)c4nccc(C(F)(F)F)c4Cl)cnc3C)cc2cn1` [compound 26], the IC50 was in the range of 0.02 to 0.1 µM.

On to `CNc1cc2ncc(-c3cc(NC(=O)c4ccnc(C(C)C)c4)cnc3C)cc2cn1` [compound 57], for which the IC50 is less than 0.02 µM.
